Reference: patent US11547663B2, “Unit aerosol doses for anticoagulation” (InCarda Therapeutics, Inc., priority 2015, dated 2023)

Assays:
intrinsic system = experiment: Activated Partial Thromboplastin Time (aPTT or PTT) in dog blood after IV or IT anticoagulant; assay type: in vivo; settings: for PTT CS: Coronary Sinus; for PTT LA: Left Atrium
Protocol: (§1) To assess the efficacy of anticoagulants delivered via intratracheal (IT) inhalation, four different anticoagulants were tested in a dog study.
(§2) PK as well as biomarkers of blood in the Left Atrium (LA) and Coronary Sinus (CS) were monitored. These locations were chosen as these are the sites whereby clot formation occurs that leads to Myocardial Infarction or results in stroke.
(§3) These drugs and doses were selected to represent a wide spectrum of anticoagulant classes. One anticoagulant was tested in one dog on each arm of this study.
(§4) Factor Xa inhibition; Prothrombin Time (PT): measures the integrity of the extrinsic system as well as factors common to both systems; and Activated Partial Thromboplastin Time (aPTT or PTT): measures the integrity of the intrinsic system and the common components and factor-Xa inhibition.
(§5) Measurements were performed in the blood collected from Left Atrium (LA) and in the Coronary sinus (CS)—the targets for stroke prevention and Myocardial Infarction (MI), respectively.

extrinsic system = experiment: Prothrombin Time (PT) in dog blood after IV or IT anticoagulant; assay type: in vivo; settings: for PT CS / PTCS: Coronary Sinus; for PT LA: Left Atrium
Protocol: as §1, §2, §3, §4, §5

intrinsic pathway = experiment: Activated clotting time (ACT) in dog blood after IV or IT anticoagulant; assay type: in vivo; settings: for ACT LA: Left Atrium
Protocol: To assess the efficacy of anticoagulants delivered via intratracheal (IT) inhalation, four different anticoagulants were tested in a dog study. PK as well as biomarkers of blood in the Left Atrium (LA) and Coronary Sinus (CS) were monitored. These locations were chosen as these are the sites whereby clot formation occurs that leads to Myocardial Infarction or results in stroke. These drugs and doses were selected to represent a wide spectrum of anticoagulant classes. One anticoagulant was tested in one dog on each arm of this study. Activated clotting time (ACT), measures the time in seconds needed for whole blood to clot upon exposure to an activator of an intrinsic pathway by the addition of such as factor XII activators. Measurements were performed in the blood collected from Left Atrium (LA) and in the Coronary sinus (CS)—the targets for stroke prevention and Myocardial Infarction (MI), respectively.

[1] = Inhaled anticoagulant in heart transplant patient (Example 8); assay type: in vivo, human; settings: patient undergoing heart transplant
Protocol: Inhaled anticoagulant (e.g. Argatroban) will be administered to a patient undergoing heart transplant to target the heart to reach an anti-coagulated state. In this example, a dose of 0.1 to 150 mg/kg can be sufficient to achieve an anti-coagulated state in 30 minutes.

[2] = Inhaled anticoagulant in patient undergoing heart valve replacement (Example 6); assay type: in vivo, human
Protocol: Inhaled anticoagulant (e.g. Argatroban) will be administered to a patient undergoing heart valve replacement to target the heart to reach an anti-coagulated state. In this example, a dose of 0.1 to 150 mg/kg can be sufficient to achieve an anti-coagulated state in 30 minutes.

[3] = Inhaled anticoagulant in Myocardial Infarction patient (Example 4); assay type: in vivo, human
Description: Inhaled anticoagulant (e.g. Argatroban) will be administered (e.g., self-administered) to a patient suffering a Myocardial Infarction (MI) early to ensure that the patient is in an anti-coagulated state by the time the patient arrives at the hospital or point of care. This will facilitate further interventions, for which an anti-coagulated state is important.

[4] = cited from earlier work
[5] = in vivo; cited from earlier work
[6] = IV Argatroban 3 mg, 0 min (baseline)
[7] = T Argatroban 5 mg, 0 min (baseline)

CC1CNc2c(cccc2S(=O)(=O)N[C@@H](CCCNC(=N)N)C(=O)N2CC[C@@H](C)C[C@@H]2C(=O)O)C1 (some centres unmarked) [Argatroban]
effect on aPTT (intrinsic system; IT (inhaled)): very marginal spikes | effect on aPTT (intrinsic system; IV): prolonged | PTT CS (intrinsic system; [6]): 20.9 s | PTT CS (intrinsic system; IV Argatroban 3 mg, 3 min): 20 s | PTT CS (intrinsic system; IV Argatroban 3 mg, 15 min): 33.8 s | PTT CS (intrinsic system; IV Argatroban 3 mg, 60 min): 24.9 s | PTT LA (intrinsic system; [6]): 48.2 s | PTT LA (intrinsic system; IV Argatroban 3 mg, 1 min): 41.5 s | PTT LA (intrinsic system; IV Argatroban 3 mg, 3 min): 29.5 s | PTT LA (intrinsic system; IV Argatroban 3 mg, 5 min): 23.4 s | PTT LA (intrinsic system; IV Argatroban 3 mg, 10 min): 20.9 s | PTT LA (intrinsic system; IV Argatroban 3 mg, 15 min): 25.1 s | PTT LA (intrinsic system; IV Argatroban 3 mg, 30 min): 12.2 s | PTT LA (intrinsic system; IV Argatroban 3 mg, 60 min): 9.8 s | PTT LA (intrinsic system; IV Argatroban 3 mg, 120 min): 49.3 s | PTT CS (intrinsic system; [7]): 16.1 s | PTT CS (intrinsic system; T Argatroban 5 mg, 3 min): 18.4 s | PTT CS (intrinsic system; T Argatroban 5 mg, 15 min): 9.5 s | PTT CS (intrinsic system; T Argatroban 5 mg, 60 min): 40.3 s | PTT LA (intrinsic system; [7]): 13.3 s | PTT LA (intrinsic system; T Argatroban 5 mg, 1 min): 12.5 s | PTT LA (intrinsic system; T Argatroban 5 mg, 3 min): 17.7 s | PTT LA (intrinsic system; T Argatroban 5 mg, 5 min): 17.2 s | PTT LA (intrinsic system; T Argatroban 5 mg, 10 min): 20.1 s | PTT LA (intrinsic system; T Argatroban 5 mg, 15 min): 17.8 s | PTT LA (intrinsic system; T Argatroban 5 mg, 30 min): 13.2 s | PTT LA (intrinsic system; T Argatroban 5 mg, 60 min): 11.1 s | PTT LA (intrinsic system; T Argatroban 5 mg, 120 min): 10.4 s | effect on PT (extrinsic system; IT (inhaled)): very marginal spikes | effect on PT (extrinsic system; IV): prolonged | PT CS (extrinsic system; [6]): 6.5 s | PT CS (extrinsic system; IV Argatroban 3 mg, 3 min): 33.7 s | PT CS (extrinsic system; IV Argatroban 3 mg, 15 min): 20.2 s | PT CS (extrinsic system; IV Argatroban 3 mg, 60 min): 8.6 s | PT LA (extrinsic system; [6]): 9.1 s | PT LA (extrinsic system; IV Argatroban 3 mg, 1 min): 44.3 s | PT LA (extrinsic system; IV Argatroban 3 mg, 3 min): 36.3 s | PT LA (extrinsic system; IV Argatroban 3 mg, 5 min): 30.1 s | PT LA (extrinsic system; IV Argatroban 3 mg, 10 min): 22 s | PT LA (extrinsic system; IV Argatroban 3 mg, 15 min): 18 s | PT LA (extrinsic system; IV Argatroban 3 mg, 30 min): 11.5 s | PT LA (extrinsic system; IV Argatroban 3 mg, 60 min): 7.9 s | PT LA (extrinsic system; IV Argatroban 3 mg, 120 min): 6.7 s | PTCS (extrinsic system; [7]): 6.5 s | PTCS (extrinsic system; T Argatroban 5 mg, 3 min): 6.8 s | PTCS (extrinsic system; T Argatroban 5 mg, 15 min): 8.9 s | PTCS (extrinsic system; T Argatroban 5 mg, 60 min): 8.6 s | PT LA (extrinsic system; [7]): 6.3 s | PT LA (extrinsic system; T Argatroban 5 mg, 1 min): 6.7 s | PT LA (extrinsic system; T Argatroban 5 mg, 3 min): 7 s | PT LA (extrinsic system; T Argatroban 5 mg, 5 min): 7.2 s | PT LA (extrinsic system; T Argatroban 5 mg, 10 min): 8.6 s | PT LA (extrinsic system; T Argatroban 5 mg, 15 min): 10.4 s | PT LA (extrinsic system; T Argatroban 5 mg, 30 min): 12 s | PT LA (extrinsic system; T Argatroban 5 mg, 60 min): 8.1 s | PT LA (extrinsic system; T Argatroban 5 mg, 120 min): 7.3 s | time in which ACT returns to base line (intrinsic pathway): 2 h | increase of ACT above baseline (intrinsic pathway; IT): ≤ 3.2 fold | time in which IT prolonged the ACT (intrinsic pathway; IT): 15 to 30 min | effect on ACT (intrinsic pathway; IT (inhaled)): increased and prolonged ACT | effect on ACT (intrinsic pathway; IV): prolonged | ACT LA (intrinsic pathway; [6]): 101 s | ACT LA (intrinsic pathway; IV Argatroban 3 mg, 1 min): 535 s | ACT LA (intrinsic pathway; IV Argatroban 3 mg, 3 min): 1000 s | ACT LA (intrinsic pathway; IV Argatroban 3 mg, 5 min): 489 s | ACT LA (intrinsic pathway; IV Argatroban 3 mg, 10 min): 326 s | ACT LA (intrinsic pathway; IV Argatroban 3 mg, 15 min): 264 s | ACT LA (intrinsic pathway; IV Argatroban 3 mg, 30 min): 185 s | ACT LA (intrinsic pathway; IV Argatroban 3 mg, 60 min): 140 s | ACT LA (intrinsic pathway; IV Argatroban 3 mg, 120 min): 107 s | ACT LA (intrinsic pathway; [7]): 84 s | ACT LA (intrinsic pathway; T Argatroban 5 mg, 1 min): 89 s | ACT LA (intrinsic pathway; T Argatroban 5 mg, 3 min): 73 s | ACT LA (intrinsic pathway; T Argatroban 5 mg, 5 min): 106 s | ACT LA (intrinsic pathway; T Argatroban 5 mg, 10 min): 135 s | ACT LA (intrinsic pathway; T Argatroban 5 mg, 15 min): 180 s | ACT LA (intrinsic pathway; T Argatroban 5 mg, 30 min): 259 s | ACT LA (intrinsic pathway; T Argatroban 5 mg, 60 min): 180 s | ACT LA (intrinsic pathway; T Argatroban 5 mg, 120 min): 129 s | return to a normal coagulation state after initiating the administration ([1]; inhaled): 3 h | time to achieve an anti-coagulated state ([1]; inhaled 0.1 to 150 mg/kg): 30 min | return to a normal coagulation state after initiating the administration ([2]; inhaled): 3 h | time to achieve an anti-coagulated state ([2]; inhaled 0.1 to 150 mg/kg): 30 min | time to achieve an anti-coagulated state ([3]; patient suffering Myocardial Infarction, inhaled 0.1 to 150 mg/kg): 30 min | return to a normal coagulation state after initiating the administration ([3]; patient suspected of Myocardial Infarction, inhaled): 3 h

CCCCS(=O)(=O)N[C@@H](Cc1ccc(OCCCCC2CCNCC2)cc1)C(=O)O [Tirofiban]
Log P [4]: 1.4 | aqueous solubility [4]: low

CO[C@H]1O[C@H](COS(=O)(=O)O)[C@@H](O[C@@H]2O[C@@H](C(=O)O)[C@@H](O[C@H]3O[C@H](COS(=O)(=O)O)[C@@H](O[C@@H]4O[C@H](C(=O)O)[C@@H](O[C@H]5O[C@H](COS(=O)(=O)O)[C@@H](OC)[C@H](OC)[C@H]5OC)[C@H](OC)[C@H]4OC)[C@H](OS(=O)(=O)O)[C@H]3OS(=O)(=O)O)[C@H](OC)[C@H]2OC)[C@H](OS(=O)(=O)O)[C@H]1OS(=O)(=O)O [idraparinux]
elimination half-life [5]: approximately 80 hours | elimination half-life relative to fondaparinux [5]: five to six times longer
